One data set deals with T1, PARP (Mus musculus, UniProt P11103).
T1 construct: endogenous in cells; host or cells: L1210 murine leukaemia cells, permeabilised by hypotonic buffer and cold shock
In words: PARP enzyme inhibition assay ([32P]-NAD+ incorporation into TCA-precipitated poly(ADP-ribose), oligonucleotide-activated, permeabilised L1210 cells). It is filed as biochemical, murine (L1210 leukaemia cells). To be noted: for IC50: permeabilised L1210 cells, 26° C., 5 minutes. The text has this: The poly(ADP-ribose) which is then synthesised by the enzyme can be precipitated by tri-chloracetic acid (TCA) and the amount of radio-labelled ^32 p incorporated therein measured, e.g. using a scintillation counter, to give a measure of the activity of the PARP under the particular conditions of the experiment. By repeating the experiment following the same procedure, and under the same conditions, in the presence of each compound to be tested the reduction in enzyme activity, representative of the inhibitory effect of the test compound, can then be ascertained from the reduction, if any, of the amount of [^32 p] measured in the TCA precipitated poly(ADP-ribose).
Thus, with a range of different compounds a set of comparative values for inhibitory activity can be obtained.
In practice, L1210 murine leukaemia cells have been used as a source of the PARP enzyme after being rendered permeable to exogenous [^32 P]NAD by exposure to hypotonic buffer and cold shock. […] This oligonucleotide sequence snaps back on itself to form a double-stranded molecule with a single blunt end and provides an effective substrate for activation of PARP.
The experimental protocol adopted, in which a synthetic oligonucleotide as mentioned above is introduced as a specific activator of PARP, discriminates between PARP and other mono-ADP-ribosyltransferases in the cells.
The oligonucleotide having the palindromic sequence […], synthesised by conventional means, was vacuum dried and stored as pellets in a freezer. Before use, it was made up to 200 μg/ml in 10 mM Tris/HCl, pH 7.8, with each pellet being dissolved completely in […] of buffer. The solution was then heated to 60° C. in a water bath for 15 minutes, and allowed to cool slowly to ensure correct reannealing. After adding 9.5 ml of buffer, the concentration was checked by measuring the optical density of a diluted sample at 260 nm. The main solution was then diluted to a concentration of 200 μg/ml and stored in 500 μl aliquots in a freezer, ready for use.
The L1210 cells used as the source of the PARP enzyme were maintained as a suspension culture in RPMI medium+10% foetal bovine serum+glutamine and antibiotics (penicillin and streptomycin). HEPES and sodium bicarbonate were also added, and the cells were seeded in 100 ml-200 ml of medium such that there would be a concentration of approximately 8×10^5 /ml at the time of carrying out an assay.
The solubility of the compound was then checked by adding a quantity of the DMSO solution to a quantity of the isotonic buffer, in the required final proportions that were to be used in carrying out the assay, and after an interval the solution was examined under a microscope for any signs of crystals forming.
A desired quantity of the cells, ascertained by counting with a haemocytometer, was then centrifuged (1500 rpm in a "Europa" model 24M centrifuge for 5 minutes), the supernatant removed, and the pellets obtained were resuspended in 20 ml Ca^++ Mg^++ free phosphate buffered saline (Dulbeco's modification A, abbreviated Dul A) at 4° C. before centrifuging again at 1500 rpm and 4° C. After again removing the supernatant, the cells were resuspended at a concentration of 3×10^7 cells/ml in ice cold hypotonic buffer and left for 30 minutes on ice. Nine volumes were then added of ice cold isotonic buffer, and the cells, now rendered permeable to exogenous NAD^+, were then used within the next hour for carrying out an assay. The permeablisation of the cells may be checked at this stage by adding duplicate aliquots of cells to an equal volume of trypan blue, leaving for 5 minutes and then counting on a haemocytometer. Those rendered permeable will take up the Trypan blue and appear coloured.

For data set [1], the system named is L1210 murine leukaemia cells. The data set can be described thus: in vitro cytotoxicity assay (colony formation, L1210 cells, NU1064 with or without temozolomide). It is filed as cell-based. The settings on record: for relative plating efficiency, NU1064 with temozolomide: 24 hours, normalised to temozolomide alone = 100%. As to the method: Again using cultures of the murine leukaemia L1210 cell line, growth inhibition experiments were carried out to assess the cytostatic effects of the compounds and clonogenic survival assays were performed to assess cytotoxicity, especially in relation to use of the compounds in conjunction with DNA damaging cytotoxic agents such as cytotoxic antitumour drugs or gamma irradiation. […] After 1 week colonies of viable cells were stained with MTT (1 ml 0.5 mg/ml) and counted.

Where [2] appears, read: read-out: IC50 value (PARP inhibition).

What is called IC50 is the concentration that inhibits the measured activity by half.

Where “and” joins values, the source holds several entries; their conditions need not be identical. Identical values can stand only once. Like-named read-outs stand apart in the source and are kept apart here.

T1 sequence (P11103 whole entry): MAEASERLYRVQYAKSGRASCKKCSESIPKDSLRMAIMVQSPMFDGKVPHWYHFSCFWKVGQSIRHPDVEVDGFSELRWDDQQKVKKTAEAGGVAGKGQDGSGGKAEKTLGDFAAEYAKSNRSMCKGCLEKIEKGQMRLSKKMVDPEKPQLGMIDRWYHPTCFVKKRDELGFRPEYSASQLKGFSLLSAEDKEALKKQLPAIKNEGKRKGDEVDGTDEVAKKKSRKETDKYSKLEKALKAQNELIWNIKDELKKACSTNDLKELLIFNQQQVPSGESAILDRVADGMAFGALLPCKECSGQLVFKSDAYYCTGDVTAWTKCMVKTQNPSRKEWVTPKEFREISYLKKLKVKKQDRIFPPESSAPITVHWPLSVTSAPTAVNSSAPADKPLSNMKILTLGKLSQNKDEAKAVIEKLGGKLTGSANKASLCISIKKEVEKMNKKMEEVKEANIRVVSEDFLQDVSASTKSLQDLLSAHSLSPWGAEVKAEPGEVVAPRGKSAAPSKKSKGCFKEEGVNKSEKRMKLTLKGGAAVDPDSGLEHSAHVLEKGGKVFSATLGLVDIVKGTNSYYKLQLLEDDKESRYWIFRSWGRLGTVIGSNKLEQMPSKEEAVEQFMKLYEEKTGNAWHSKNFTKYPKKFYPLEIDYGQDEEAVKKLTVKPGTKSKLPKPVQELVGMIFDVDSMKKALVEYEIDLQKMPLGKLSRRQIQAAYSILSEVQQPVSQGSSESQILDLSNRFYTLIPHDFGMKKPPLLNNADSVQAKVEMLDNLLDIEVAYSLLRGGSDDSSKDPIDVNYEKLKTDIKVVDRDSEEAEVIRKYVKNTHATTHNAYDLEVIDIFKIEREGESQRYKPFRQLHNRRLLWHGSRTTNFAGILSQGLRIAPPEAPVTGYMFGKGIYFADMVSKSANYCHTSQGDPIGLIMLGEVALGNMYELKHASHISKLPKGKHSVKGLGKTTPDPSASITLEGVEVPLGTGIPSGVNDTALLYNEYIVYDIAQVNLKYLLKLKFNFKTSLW

Consider `NC(=O)c1cccc2[nH]cnc12` [NU1066, benzimidazole-4-carboxamide], for which, at PARP (IC50 value (PARP inhibition)), the IC50 was 1260 nM and 1020 nM.
On to `NC(=O)c1cccc(O)c1` [3-hydroxybenzamide, reference compound], for which the concentration for half-maximal inhibition (IC50) on PARP (setting [2]) is 8000 ± 3500 nM.
With `COc1cccc(-c2nc3c(C(N)=O)cccc3[nH]2)c1` [NU1098, 2-(3'-Methoxyphenyl)-1-H-benzimidazole-4-carboxamide], the IC50 at PARP (setting [2]) was found to be 130 nM.
With `NC(=O)c1cccc2nc(-c3ccc(N)cc3)[nH]c12` [NU1103, 2-(4'-aminophenyl)benzimidazole-4-carboxamide], at PARP (setting [2]), the IC50 was determined as 91 nM.
`O=C(O)c1cccc2nc[nH]c12` [NU1067, benzimidazole-4-carboxylic acid]: the “% Inhibition at 10 μM or IC50 value (result in words)” value at PARP (result in words in table) is given as “Inactive”.
In the case of `NC(=O)c1ccccc1` [benzamide, reference compound], the IC50 on PARP (setting [2]) was found to be 12400 ± 3100 nM.
As to `NC(=O)c1cccc2[nH]c(C(F)(F)F)nc12` [NU1086, 2-trifluoromethylbenzimidazole-4-carboxamide], the IC50 on PARP (setting [2]) stood at 1600 nM.
In the case of `COc1ccc(-c2nc3c(C(N)=O)cccc3n2C)cc1` [NU1090, 2-(4'-Methoxyphenyl)-1-methylbenzimidazole-4-carboxamide], the IC50 on PARP (setting [2]) is roughly 100 nM.
Regarding `COc1ccc(-c2nc3c(C(N)=O)cccc3[nH]2)cc1` [NU1076, 2-(4'-methoxyphenyl)benzimidazole-4-carboxamide], the half-maximal inhibitory concentration (IC50) at PARP (setting [2]) amounted to 59 nM.
For `Cc1nc2c(C(N)=O)cccc2[nH]1` [NU1064, 2-methylbenzimidazole-4-carboxamide], the IC50 on PARP (setting [2]) was found to be 1090 ± 230 nM. For the same compound, the results for the “relative plating efficiency, NU1064 with temozolomide” value in data set [1] (100 μM NU1064 + 100 μM temozolomide) and in data set [1] (200 μM NU1064 + 100 μM temozolomide) were 28% and 2%, respectively. In addition, the viability at 100 µM in data set [1] (Mus musculus, L1210, 100 μM NU1064, 24 hours, normalised to control = 100%, read-out: relative plating efficiency, NU1064 alone) came to 72%. In data set [1] (Mus musculus, L1210, 200 μM NU1064, 24 hours, normalised to control = 100%, read-out: relative plating efficiency, NU1064 alone), the viability at 200 µM is 54%. The “potentiation of temozolomide cytotoxicity (in words)” value in data set [1] (increasing concentrations of NU1064 + 100 μM temozolomide) is “very marked increase in temozolomide cytotoxicity”.
`NC(=O)c1cccc2nc(-c3ccc(O)cc3)[nH]c12` [NU1085, 2-(4'-Hydroxyphenyl)-1-H-benzimidazole-4-carboxamide] displayed an IC50 at PARP (IC50 value (PARP inhibition)) of 77 nM.
Take `NC(=O)c1cccc2[nH]c(-c3cccc(C(F)(F)F)c3)nc12` [NU1093, 2-(3'-Trifluoromethylphenyl)-1-H-benzimidazole-4-carboxamide]: on PARP (setting [2]), the 50% inhibitory concentration (IC50) amounted to 76 nM.
For `NC(=O)c1cccc2[nH]c(-c3ccc([N+](=O)[O-])cc3)nc12` [NU1091, 2-(4'-Nitrophenyl)-1-H-benzimidazole-4-carboxamide], on PARP, the “PARP inhibitory activity (in words)” value was “exceptionally high inhibitory activities”. Further, on PARP (setting [2]), the IC50 turned out to be 22 nM.
As to “CGGAATTCCG: single strand oligonucleotide having the palindromic sequence CGGAATTCCG, activator of PARP (chemistry not given here) [reference compound]”, the “activation of PARP by oligonucleotide (in words)” value with PARP is recorded as “potent activator of the enzyme”.
As to `Cn1nnc2c(C(N)=O)ncn2c1=O` [temozolomide, reference compound], the plating efficiency in data set [1] (100 μM temozolomide alone, 24 hours (control 89%)) is given as 32%.
For `COc1ccc(-c2nc3c(C(N)=O)cccc3n2C(=O)c2ccccc2)cc1` [NU1101, 2-(4'-Methoxyphenyl)-1-benzoylbenzimidazole-4-carboxamide], the IC50 on PARP (setting [2]) came to 270 nM.
With `N#Cc1ccc(-c2nc3c(C(N)=O)cccc3[nH]2)cc1` [NU1092, 2-(4'-Cyanophenyl)-1-H-benzimidazole-4-carboxamide], the “PARP inhibitory activity (in words)” value at PARP was “exceptionally high inhibitory activities”. The IC50 on PARP (setting [2]) was 33 nM.

For the origin of these results see US6100283A, “Benzimidazole compounds” (Newcastle University Ventures Limited, priority 1995, dated 2000).
